Source: patent publication EP0503411A1, “Substituted N-phenylpiperidines and medicaments thereof” (BASF Aktiengesellschaft, priority 1991, dated 1992)

What was measured:
Sigma-Rezeptor = assay: Sigma receptor binding test ([³H]-Ditolylguanidin binding, rat cerebrum membranes); set-up: species or system Ratte; settings: [³H]-Ditolylguanidin-Bindungsstelle, 37°C
Description: Der verwendete Bindungsassay (Bindung von [³H]-Ditolylguanidin) erfaßt sogenannte "Haloperidolsensitive-Sigma-Rezeptoren", die eine hohe Affinität zum Haloperidol, aber nur geringe Affinität zum Phencyclidin und zu Opoiden aufweisen.
Life Sciences 47, 1073 (1990)], eingesetzt.
Rattengroßhirne wurden in dem 10fachen Volumen Homogenisierungspuffer (50 mmol Tris(hydroxymethyl)-amino-methan, 0,1 mmol Ethylendiamintetraacetat, pH=7,7) mit einem Polytron-Homogenisiator homogenisiert (20 sec.). Nach 15 Minuten Zentrifugation bei 40000 Umdrehungen/min wurde das erhaltene Pellet resuspendiert und die Suspension erneut 15 Minuten lang mit 40000 Umdrehungen/min zentrifugiert. Das hierbei erhaltene Pellet wurde im 5fachen Volumen Homogenisierungspuffer resuspendiert und bis zur weiteren Verwendung in flüssigem Stickstoff eingefroren.
Testsubstanz und Membranen (0,3 mg Protein) wurden in 0,3 ml Inkubationspuffer (5 mmol Tris(hydroxymethyl)-amino-methan, 0,1 mmol Ethylendiamintetraacetat, pH=7,7) 45 Minuten bei 37°C inkubiert. Nach Zugabe von 100 000 dpm [³H]-Ditolylguanidin (54,5 Ci/mmol) wurde noch 1 Stunde inkubiert. Die Membranen wurden über GF/B-Filter (dunn-Labortechnik, Asbach) filtriert und mit einem 37°C warmen Waschpuffer (5 mmol Tris(hydroxymethyl)-amino-methan, 0,1 mmol Ethylendiamintetraacetat, pH=7,4) gewaschen. Die verbleibende Radioaktivität auf den Filtern wurde durch Flüssig-Scintillationszählung gemessen. Die Bindungsdaten wurden durch iterative Anpassungsprogramme analysiert.

Meerschweinchenherzen = assay: QT-prolonging effect, ECG measurement on isolated Langendorff-perfused guinea pig heart; set-up: species or system Duncin-Hartley-Meerschweinchen; settings: concentration in perfusate giving 20 % increase of initial QT duration, cumulative addition every 15 min, from linear regression
Description: Die Wirkung der Phenylpiperidine I als Repolarisationshemmstoffe kann man durch EKG-Messungen belegen. Dabei unterteilt man die Herzperiode zeitlich in Systole (Zusammenziehen des Herzens), auch QT-Dauer genannt, und Diastole (Erschlaffung des Herzens mit Blutfüllung der Herzkammern). Repolarisationshemmstoffe bewirken nun eine Verlängerung der QT-Dauer ohne die Vorhofkammer-überleitungszeit (PQ-Dauer) und die Anspannungszeit (QRS-Dauer, Beginn der Systole bis zum öffnen der Semilunarklappen) wesentlich zu verändern (s. Pschyrembel, 254. Auflage, 1982).
Die Wirksamkeit der erfindungsgemäßen Verbindungen als Repolarisationshemmstoffe läßt sich im Tierversuch durch EKG-Messungen beispielsweise am Meerschweinchenherzen untersuchen (s. Basic Res. Cardiol. 82 (1987) 437; J. Pharmacol. Methods 21 (1989) 195). Zum Vergleich der Wirksamkeit mehrerer Substanzen dient dabei zum Beispiel die Dosis eines Wirkstoffes, bei der eine 20 %ige Zunahme des QT-Ausgangswertes eintritt (ED₂₀ %). Hierzu trägt man die logarithmierten Dosiswerte der jeweiligen Substanzen gegen die experimentell gefundenen relativen Änderungen der QT-Dauer auf, und ermittelt mittels linearer Regression die Funktionsgleichung einer Geraden, aus der man dann den ED20 %-Wert berechnen kann.
Mit dieser Methode wurden die ED20 %-Werte erfindungsgemäßer Verbindungen bestimmt (s. Tabelle 1). Als Vergleichssubstanz diente D-Sotalol [4'-(1-Hydroxy-2-(isopropylamino)-ethyl)methansulfonanilid].
Als Versuchstiere dienten männliche Duncin-Hartley-Meerschweinchen mit einem Körpergewicht von 300 bis 350 g. 30 min nach Applikation von 1250 I.E. Heparin/kg Körpergewicht in den Bauchraum wurden die Tiere durch Genickschlag getötet. Nach dem Durchtrennen der Kopfschlagadern zum Entbluten, wurde der Bruststamm geöffnet, das Herz herausgetrennt und an eine Perfusionsapparatur angeschlossen. Die Perfusion erfolgte nach Langendorff mit Sauerstoff angereicherter auf 37°C erwärmter Krebs-Henseleit-Lösung (NaCl 6896 mg/l; KCl 350 mg/l; MgSO₄ 285 mg/l; CaCl₂ 370 mg/l; KH₂PO₄ 161 mg/l; NaHCO₃ 2090 mg/l; Glukose 2000 mg/l). Dabei wurde das Perfusionsvolumen pro Zeiteinheit bei einem Gesamtvolumen von 100 ml auf 4 bis 6 ml/min und der Perfusionsdruck auf 60 bis 70 mm Hg eingestellt. Nach einer Äquilibrierzeit von 30 min wurde zirkulierend perfundiert.
Die EKG-Messungen wurden über zwei Silberelektroden, die auf der Herzoberfläche im oberen Bereich der linken Koronararterie und auf der Rückseite des Herzens auf Höhe der Ventilebene angebracht waren, aufgenommen. Gemessen wurden die PQ-, QT- und QRS-Zeiten sowie die Herzfrequenz.
Die Substanzgabe erfolgte kumulativ im Abstand von 15 min ins Perfusat.

## 1-(4-Nitrophenyl)-4-(4-phenyl-1-piperidinoyl)-piperidin [Beispiel 8]
Sigma-Rezeptor
  Ki: 2.8 nM

## CN(Cc1ccccc1)CC1CCN(c2ccc([N+](=O)[O-])cc2)CC1 [Beispiel 2, 4-(N-Benzyl-N-methylaminomethyl)-1-(4-nitrophenyl)-piperidin]
Meerschweinchenherzen
  ED20 %: 0,42 µmol/l
Sigma-Rezeptor
  Ki: 11 nM

## N#Cc1ccc(N2CCC(N3CCN(c4ccc([N+](=O)[O-])cc4)CC3)CC2)cc1 [Beispiel 3, N-[4-N(4-Cyanophenyl)piperidinoyl]-N'³(4-nitrophenyl)-piperazin]
Meerschweinchenherzen
  ED20 %: 0,031 µmol/l

## CN(Cc1ccc(NS(C)(=O)=O)cc1)CC1CCN(c2ccc(NS(C)(=O)=O)cc2)CC1 [Beispiel 10, 1-(4-Methansulfonamidophenyl)-4-(N-(4-methansulfonamidobenzyl)-N-methylaminomethyl)-piperidin]
Meerschweinchenherzen
  ED20 %: 0,96 µmol/l

## CN(Cc1ccccc1)C1CCCN(c2ccc([N+](=O)[O-])cc2)C1 (stereo not shown) [Beispiel 11, 3-(N-Benzyl-N-methylamino)-1-(4-nitrophenyl)-piperidin]
Meerschweinchenherzen
  ED20 %: 1,1 µmol/l
Sigma-Rezeptor
  Ki: 2 nM

## CN(CC(O)c1ccc(F)cc1)C1CCN(c2ccc([N+](=O)[O-])cc2)CC1 (stereo not shown) [Beispiel 12, 4-[N,N-[2-(4-Fluorphenyl)-2-hydroxyethyl]methylamino]-1-(4-nitrophenyl)-piperidin]
Meerschweinchenherzen
  ED20 %: 0,21 µmol/l

## CC(C)NCC(O)c1ccc(NS(C)(=O)=O)cc1 [D-Sotalol, 4'-(1-Hydroxy-2-(isopropylamino)-ethyl)methansulfonanilid, reference compound]
Meerschweinchenherzen
  ED20 %: 16,0 µmol/l

## Cc1ccccc1NC(=N)Nc1ccccc1C [DTG, 1,3-Di-o-tolyl-guanidin, reference compound]
Sigma-Rezeptor
  Ki: 29.1 nM
